The results in this text go back to US20040132780A1, “Method and compositions for treating migraines” (priority 2001, published 2004).

The data set in a line: pharmacokinetics of etoricoxib compared to traditional NSAIDs. To be noted: as compared to traditional NSAIDs such as naproxen. The class given is in vivo.

Consider `Cc1ccc(-c2ncc(Cl)cc2-c2ccc(S(C)(=O)=O)cc2)cn1` [Etoricoxib, etoricoxib], for which the half-life result was “longer” and the “time to maximum concentration” value is given as “shorter”.
